Measurements from patent US9365584B2, “Thieno [2,3-B] pyridinedione activators of AMPK and therapeutic uses thereof” (Poxel, priority 2009, dated 2016).

These molecules were tested on AMPK (assay: AMPK enzyme activity assay (Delfia technology, AMARA peptide substrate)). Conditions: compound at 30 μM vs AMP at 200 μM.
Type: biochemical
Method: The following biological test allows the determination of the efficacy of compounds of formula (1) onto AMPK protein.
AMPK enzyme activities were assayed by using a Delfia technology. AMPK enzyme activities were carried out in microtiter plates in the presence of a synthetic peptide substrate (AMARAASAAALARRR, the “AMARA” peptide) and activators in serial dilutions. Reactions were initiated by the addition of AMPK. Enzyme activity was assayed by using an anti-phosphoserine antibody to measure the quantity of phosphate incorporated into the AMARAA.
No: Number of the molecule
Activity: Ratio between the % of control (basal activity) of compound of formula (1) at 30 μM and the % of control (basal activity) of AMP (natural substrate) at 200 μM.

Activity: Ratio between the % of control (basal activity) of compound of formula (1) at 30 μM and the % of control (basal activity) of AMP (natural substrate) at 200 μM	Compound
C (C≧75%)	CC1(c2cccc(S(C)(=O)=O)c2)C(=O)Nc2sc(Cl)c(-c3ccc(F)cc3)c2C1=O (stereo not drawn) [No 64, 2-chloro-3-(4-fluorophenyl)-5-methyl-5-(3-methyl-sulfonylphenyl)-7H-thieno[2,3-b]pyridine-4,6-dione]
C (C≧75%)	COc1ccccc1-c1c(Cl)sc2c1C(=O)C(C)(c1ccc(C)cc1)C(=O)N2 (stereo not drawn) [No 65, 2-chloro-3-(2-methoxyphenyl)-5-methyl-5-(p-tolyl)-7H-thieno[2,3-b]pyridine-4,6-dione]
C (C≧75%)	COc1ccccc1-c1c(Cl)sc2c1C(=O)C(C)(c1cccc(F)c1)C(=O)N2 (stereo not drawn) [No 66, 2-chloro-5-(3-fluorophenyl)-3-(2-methoxyphenyl)-5-methyl-7H-thieno[2,3-b]pyridine-4,6-dione]
C (C≧75%)	COc1ccc(C2(C)C(=O)Nc3sc(Cl)c(-c4ccccc4OC)c3C2=O)cc1 (stereo not drawn) [No 67, 2-chloro-3-(2-methoxyphenyl)-5-(4-methoxyphenyl)-5-methyl-7H-thieno[2,3-b]pyridine-4,6-dione]
C (C≧75%)	COc1cccc(C2(C)C(=O)Nc3sc(Cl)c(-c4ccccc4OC)c3C2=O)c1 (stereo not drawn) [No 68, 2-chloro-3-(2-methoxyphenyl)-5-(3-methoxyphenyl)-5-methyl-7H-thieno[2,3-b]pyridine-4,6-dione]
C (C≧75%)	COc1ccccc1-c1c(Cl)sc2c1C(=O)C(C)(c1ccccc1F)C(=O)N2 (stereo not drawn) [No 69, 2-chloro-5-(2-fluorophenyl)-3-(2-methoxyphenyl)-5-methyl-7H-thieno[2,3-b]pyridine-4,6-dione]
C (C≧75%)	Cc1sc2c(c1-c1ccccc1)C(=O)C(F)(c1ccccc1)C(=O)N2 (stereo not drawn) [No 70, 5-fluoro-2-methyl-3,5-diphenyl-7H-thieno[2,3-b]pyridine-4,6-dione]
B (50%≦B<75%)	O=C1Nc2sc(Cl)c(-c3cccnc3)c2C(=O)C1(F)c1ccccc1 (stereo not drawn) [No 71, 2-chloro-5-fluoro-5-phenyl-3-(3-pyridyl)-7H-thieno[2,3-b]pyridine-4,6-dione]
C (C≧75%)	O=C1Nc2sc(Cl)c(-c3ccc(O)cc3)c2C(=O)C1(F)c1ccccc1 (stereo not drawn) [No 72, 2-chloro-5-fluoro-3-(4-hydroxyphenyl)-5-phenyl-7H-thieno[2,3-b]pyridine-4,6-dione]
C (C≧75%)	O=C1Nc2sc(Cl)c(-c3ccccc3F)c2C(=O)C1(F)c1ccccc1 (stereo not drawn) [No 73, 2-chloro-5-fluoro-3-(2-fluorophenyl)-5-phenyl-7H-thieno[2,3-b]pyridine-4,6-dione]
C (C≧75%)	COc1ccc(-c2c(Cl)sc3c2C(=O)C(F)(c2ccccc2)C(=O)N3)c(F)c1 (stereo not drawn) [No 74, 2-chloro-5-fluoro-3-(2-fluoro-4-methoxy-phenyl)-5-phenyl-7H-thieno[2,3-b]pyridine-4,6-dione]
A (0%<A<50%)	Cc1ccc(C2(C)C(=O)Nc3sc(Cl)c(-c4ccccc4F)c3C2=O)cc1 (stereo not drawn) [No 75, 2-chloro-3-(2-fluorophenyl)-5-methyl-5-(p-tolyl)-7H-thieno[2,3-b]pyridine-4,6-dione]
A (0%<A<50%)	COc1cccc(C2(C)C(=O)Nc3sc(Cl)c(-c4ccccc4F)c3C2=O)c1 (stereo not drawn) [No 76, 2-chloro-3-(2-fluorophenyl)-5-(3-methoxyphenyl)-5-methyl-7H-thieno[2,3-b]pyridine-4,6-dione]
B (50%≦B<75%)	O=C1Nc2sc(Cl)c(-c3ccc(O)c(F)c3)c2C(=O)C1(F)c1ccccc1 (stereo not drawn) [No 77, 2-chloro-5-fluoro-3-(3-fluoro-4-hydroxy-phenyl)-5-phenyl-7H-thieno[2,3-b]pyridine-4,6-dione]
A (0%<A<50%)	COc1ccccc1C1(F)C(=O)Nc2sc(C)c(-c3ccccc3)c2C1=O (stereo not drawn) [No 78, 5-fluoro-5-(2-methoxyphenyl)-2-methyl-3-phenyl-7H-thieno[2,3-b]pyridine-4,6-dione]
C (C≧75%)	Cc1cccc(-c2c(Cl)sc3c2C(=O)C(F)(c2ccccc2)C(=O)N3)c1 (stereo not drawn) [No 79, 2-chloro-5-fluoro-3-(m-tolyl)-5-phenyl-7H-thieno[2,3-b]pyridine-4,6-dione]
C (C≧75%)	Cc1ccc(-c2c(Cl)sc3c2C(=O)C(F)(c2ccccc2)C(=O)N3)cc1 (stereo not drawn) [No 80, 2-chloro-5-fluoro-5-phenyl-3-(p-tolyl)-7H-thieno[2,3-b]pyridine-4,6-dione]
B (50%≦B<75%)	COc1ccc(-c2c(Cl)sc3c2C(=O)C(F)(c2ccccc2)C(=O)N3)cc1 (stereo not drawn) [No 81, 2-chloro-5-fluoro-3-(4-methoxyphenyl)-5-phenyl-7H-thieno[2,3-b]pyridine-4,6-dione]
A (0%<A<50%)	CS(=O)(=O)c1cccc(C2(F)C(=O)Nc3sc(Cl)c(-c4ccccc4)c3C2=O)c1 (stereo not drawn) [No 82, 2-chloro-5-fluoro-5-(3-methylsulfonylphenyl)-3-phenyl-7H-thieno[2,3-b]pyridine-4,6-dione]
A (0%<A<50%)	Cc1cccc(C2(C)C(=O)Nc3sc(Cl)c(-c4ccc(F)cc4)c3C2=O)c1 (stereo not drawn) [No 83, 2-chloro-3-(4-fluorophenyl)-5-methyl-5-(m-tolyl)-7H-thieno[2,3-b]pyridine-4,6-dione]
B (50%≦B<75%)	COc1ccc(C2(C)C(=O)Nc3sc(Cl)c(-c4ccccc4F)c3C2=O)cc1 (stereo not drawn) [No 84, 2-chloro-3-(2-fluorophenyl)-5-(4-methoxyphenyl)-5-methyl-7H-thieno[2,3-b]pyridine-4,6-dione]
A (0%<A<50%)	COc1ccc(-c2c(Cl)sc3c2C(=O)C(C)(c2cccc(F)c2)C(=O)N3)cc1 (stereo not drawn) [No 85, 2-chloro-5-(3-fluorophenyl)-3-(4-methoxyphenyl)-5-methyl-7H-thieno[2,3-b]pyridine-4,6-dione]
A (0%<A<50%)	COc1ccc(-c2c(Cl)sc3c2C(=O)C(C)(c2ccc(OC)cc2)C(=O)N3)cc1 (stereo not drawn) [No 86, 2-chloro-3,5-bis(4-methoxyphenyl)-5-methyl-7H-thieno[2,3-b]pyridine-4,6-dione]
A (0%<A<50%)	COc1ccc(-c2c(Cl)sc3c2C(=O)C(C)(c2cccc(C)c2)C(=O)N3)cc1 (stereo not drawn) [No 87, 2-chloro-3-(4-methoxyphenyl)-5-methyl-5-(m-tolyl)-7H-thieno[2,3-b]pyridine-4,6-dione]
A (0%<A<50%)	COc1ccc(-c2c(Cl)sc3c2C(=O)C(C)(c2cccc(OC)c2)C(=O)N3)cc1 (stereo not drawn) [No 88, 2-chloro-5-(3-methoxyphenyl)-3-(4-methoxyphenyl)-5-methyl-7H-thieno[2,3-b]pyridine-4,6-dione]
A (0%<A<50%)	CC1(c2ccccc2F)C(=O)Nc2sc(Cl)c(-c3ccccc3F)c2C1=O (stereo not drawn) [No 89, 2-chloro-3,5-bis(2-fluorophenyl)-5-methyl-7H-thieno[2,3-b]pyridine-4,6-dione]
A (0%<A<50%)	CC1(c2cccc(F)c2)C(=O)Nc2sc(Cl)c(-c3ccccc3F)c2C1=O (stereo not drawn) [No 90, 2-chloro-3-(2-fluorophenyl)-5-(3-fluorophenyl)-5-methyl-7H-thieno[2,3-b]pyridine-4,6-dione]
A (0%<A<50%)	CC1(c2ccc(F)cc2)C(=O)Nc2sc(Cl)c(-c3ccccc3F)c2C1=O (stereo not drawn) [No 91, 2-chloro-3-(2-fluorophenyl)-5-(4-fluorophenyl)-5-methyl-7H-thieno[2,3-b]pyridine-4,6-dione]
A (0%<A<50%)	Cc1cccc(C2(C)C(=O)Nc3sc(Cl)c(-c4ccccc4F)c3C2=O)c1 (stereo not drawn) [No 92, 2-chloro-3-(2-fluorophenyl)-5-methyl-5-(m-tolyl)-7H-thieno[2,3-b]pyridine-4,6-dione]
A (0%<A<50%)	O=C1Nc2sc(Cl)c(-c3ccncc3)c2C(=O)C1(F)c1ccccc1 (stereo not drawn) [No 93, 2-chloro-5-fluoro-5-phenyl-3-(4-pyridyl)-7H-thieno[2,3-b]pyridine-4,6-dione]
